Our source for the IC50 and half-life values is patent US8877775B2, “Substituted 2-aza-bicyclo[2.2.2]octane-3-carboxylic acid (benzyl-cyano-methyl)-amides inhibitors of cathepsin C” (Boehringer Ingelheim International GmbH, priority 2013, dated 2014).

The structures appear in SMILES notation.

The target of data set [1] is recombinant human Cathepsin K (Homo sapiens (Human), UniProt P43235). In words: Inhibition of human Cathepsin K. In kind it is biochemical. The conditions noted are these: substrate Z-Gly-Pro-Arg-AMC 12.5 μM, 60 min, room temperature. An excerpt: Inhibition of Human Cathepsin K
Materials: Microtiterplates (Optiplate-384 F were purchased from PerkinElmer (Prod. No. 6007270). The substrate Z-Gly-Pro-Arg-AMC was from Biomol (Prod.-No. P-142). L-Cysteine (Prod. No. 168149) was from Sigma. Sodium actetate was from Merck (Prod.-No. 6268.0250), EDTA was from Fluka (Prod.-No. 03680). The inhibitor E-64 was purchased from Sigma (Prod.-No. E3132). The recombinant human Cathepsin K proenzyme was purchased from Biomol (Prod. No. SE-367). All other materials were of highest grade commercially available.
The following buffers were used: Activation buffer: 32.5 mM sodium acetate, adjusted to pH 3.5 with HCl; Assay buffer: 150 mM sodium acetate, 4 mM EDTA, 20 mM L-Cysteine, adjusted to pH 5.5 with HCl,
To activate the proenzyme, 5 μl procathepsin K were mixed with 1 ul activation buffer, and incubated at room temperature for 30 min.
5 μL test compound (final concentration 0.1 nM to 100 μM) in aqua bidest (containing 4% DMSO, final DMSO concentration 1%) were mixed with 10 uL of Cathepsin K in assay buffer (final concentration 2 ng/μL) and incubated for 10 min. Then 5 μL of substrate in assay buffer (final concentration 12.5 μM) were added. The plates were then incubated at room temperature for is 60 min. Then, the reaction was stopped by adding 10 μL of E64 in assay buffer (final concentration 1 μM). The fluorescence in the wells was determined using a Molecular Devices SpectraMax M5 Fluorescence Reader (Ex 360 nm, Em 460 nm).
Each assay microtiter plate contains wells with vehicle controls (1% DMSO in bidest) as reference for non-inhibited enzyme activity (100% Ctl; high values) and wells with inhibitor (E64 in bidest+1% DMSO, final concentration 1 μM) as controls for background fluorescence (0% Ctl; low values). The analysis of the data was performed by calculating the percentage of fluorescence in the presence of test compound in comparison to the fluorescence of the vehicle control after subtracting the background fluorescence: (RFU(sample)−RFU(background))*100/(RFU(control)−RFU(background))
Data from these calculations were used to generate IC50 values for inhibition of Cathepsin K, respectively.

Data set [2] deals with Neutrophil elastase activity in U937 cells. Briefly: Neutrophil elastase activity in U937 cytosolic lysate after incubation with test compound. The format is cell-based. The note with it: Homo sapiens, U-937; U937 cells incubated 48 hours with compound; NE activity in lysate; read-out: Reduction of NE-activity in U937 cells IC50. On the procedure:
Determination of Neutrophil Elastase Activity in U937 Cytosolic Lysate Preparation after Incubation with Test Compound Materials: Optiplate 384F were purchased from PerkinElmer (Prod. No. #6007270). 24 well Nunclon cell culture plates (No. 142475) and 96 well plates (No. 267245) were from Nunc. Dimethylsulfoxid (DMSO) was from Sigma (Prod. No. D8418). Nonidet-P40 (NP40) was from USBiological (Prod. No. N3500) Substrate, specific for Neutrophil elastase, was from Bachem (MeOSuc-Ala-Ala-Pro-Val-AMC; Prod. No. I-1270). Human neutrophil elastase was from Calbiochem (Prod. No. 324681) Buffers: Tris-buffer (100 mM Tris; 1M NaCL; pH 7.5) Tris-buffer+HSA 0.1%; Human Serum Albumin from Calbiochem (Cat#. 126658) Serine-protease buffer (20 mM Tris; 100 mM NaCL; pH 7.5)+0.1% HSA Serine protease lysis buffer: 20 mM Tris-HCL; 100 mM NaCl pH 7.5; +0.2% Nonidet-P40; PBS: phosphate buffered saline, without Ca and Mg, from Gibco Cell Culture: U937 from ECACC (Cat. No. 85011440) cultured in suspension at 37° C. and 5% CO2. Cell density: 0.2-1 Mio. Cells/ml. Medium: RPMI1640 GlutaMAX (No. 61870) with 10% FCS from Gibco Cell Seeding and Treatment: Compounds in 100% DMSO were diluted in Medium (—FCS) with 10% DMSO and further diluted according to the experiment planned. 20 μl of the compound solution was transferred in the respective wells of the 24 well plate and diluted with 2 ml cell suspension/well containing 1′10^5 cells/ml (final concentration of DMSO=0.1%). Compound dilution factor=100 Compounds (up to 7 concentrations) were tested in triplicates with 3 wells for the DMSO 0.1% control, incubated for 48 hours without medium change at 37° C., 5% CO2 and 95% relative to humidity. Cell Harvesting and Cell Lysate:
Transfer the cell suspension in 2.2 ml Eppendorf cups. Separate cells from medium by centrifugation (400×g; 5 min; RT); discard the supernatant. Resuspend in 1 ml PBS; centrifugation (400×g; 5 min; RT); wash cells twice with PBS. Add 100 μl Serin lysis buffer (ice cold) to the cell pellet; resuspend the pellet and store on ice for 15 minutes. Remove debris by centrifugation at 15000×g for 10 min at 4° C. Transfer 80-100 μl lysate supernatant in 96 well plate and store immediately at −80° C.
Neutrophil Elastase Activity Assay:
Frozen lysates were thawn at 37° C. for 10 minutes and stored on ice. Protein content was determined with Bradford protein assay. Lysates were diluted to 0.2-0.5 mg/ml protein in serine protease buffer+HSA.
Standard: NE (100 μg/ml stocksolution in Tris-buffer; stored at −80° C.) was diluted in Tris-buffer+HSA to 750 ng/ml, and further serially diluted 1:2 for the standard curve.
Buffer, blank, standard and lysate samples were transferred into 384 well plate
The increase in fluorescence (Ex360 nm/Em 460 nm) is determined over 30 minutes with a Molecular Device Spectramax M5 Fluorescence Reader. Kinetic Reduction (Vmax units/sec); 4 vmax points. The amount of neutrophil elastase (ng/ml) is calculated using the standard curve and the Spectramax software. The result is interpolated to ng/mg lysate protein using excel formula functions. […] IC50 is calculated using Graphpad Prism; nonlinear fitting (log(inhibitor) vs. response—Variable slope). The IC50 value is interpolated as the concentration of test compound which leads to a neutrophil elastase activity reduction of 50% (relative to the DMSO-treated control).

Data set [3] is described as follows: Metabolic stability with human liver microsomes. In kind it is in vitro ADME. The conditions noted are these: pH 7.6; pooled human liver microsomes, 37° C., 1 μM test compound, 1 mg/ml protein, NADPH; read-out: In vitro stability in human liver microsome incubations t1/2. On the procedure:
Determination of Metabolic Stability with Human Liver Microsomes
The metabolic degradation of the test compound is assayed at 37° C. with pooled human liver microsomes. The final incubation volume of 100 μl per time point contains TRIS buffer pH 7.6 (0.1 M), magnesium chloride (5 mM), microsomal protein (1 mg/ml) and the test compound at a final concentration of 1 μM. Following a short preincubation period at 37° C., the reactions are initiated by addition of beta-nicotinamide adenine dinucleotide phosphate, reduced form (NADPH, 1 mM) and terminated by transfering an aliquot into acetonitrile after different time points. Additionally, the NADPH-independent degradation is monitored in incubations without NADPH, terminated at the last time point. The [%] remaining test compound after NADPH independent incubation is reflected by the parameter c(control) (metabolic stability). The quenched incubations are pelleted by centrifugation (10′000 g, 5 min). An aliquot of the supernatant is assayed by LC-MS/MS for the amount of parent compound.
The half-life (t1/2 INVITRO) is determined by the slope of the semilogarithmic plot of the concentration-time profile. The intrinsic clearance (CL_[…]) is calculated by considering the amount of protein in the incubation: CL_[…][μl/min/mg protein]=(In 2/(half-life[min]*protein content[mg/ml]))*1′000. The half-life (t1/2 INVITRO) values of selected compounds in the metabolic stability assay described above are listed in the following table

Data set [4] addresses recombinant human DPPI (Cathepsin C) (Homo sapiens (Human), UniProt P53634). In words: Inhibition of human DPPI (Cathepsin C). In kind it is biochemical. The conditions noted are these: substrate Gly-Arg-AMC 50 μM, 30 min, room temperature. From the text: Inhibition of Human DPPI (Cathepsin C)
Materials: Microtiterplates (Optiplate-384 F) were purchased from PerkinElmer (Prod. No. 6007270). The substrate Gly-Arg-AMC was from Biotrend (Prod.-No. 808756 Custom peptide). Bovine serum albumin (BSA; Prod. No. A3059) and Dithiothreitol (DTT; Prod. No D0632) were from Sigma. TagZyme buffer was from Riedel-de-Haen (Prod.-No. 04269), NaCl was from Merck (Prod.-No. 1.06404.1000) and morpholinoethane sulfonic acid (MES), was from Serva (Prod.-No. 29834). The DPP1 inhibitor Gly-Phe-DMK was purchased from MP Biomedicals (Prod.-No. 03DK00625). The recombinant human DPPI was purchased from Prozymex. All other materials were of highest grade commercially available.
The following buffers were used: MES buffer: 25 mM MES, 50 mM NaCl, 5 mM DTT, adjusted to pH 6.0, containing 0.1% BSA; TAGZyme Buffer: 20 mM NaH2PO4, 150 mM NaCl adjusted to pH 6.0 with HCl
The recombinant human DPPI was diluted in TAGZyme buffer to 1 U/ml (38.1 μg/ml, respectively), and then activated by mixing in a 1:2 ratio with a Cysteamine aqueous solution (2 mM) and incubating for 5 min at room temperature.
Five uL test compound (final concentration 0.1 nM to 100 μM) in aqua bidest (containing 4% DMSO, final DMSO concentration 1%) were mixed with 10 μL of DPPI in MES buffer (final concentration 0.0125 ng/μL) and incubated for 10 min. Then, 5 μL of substrate in MES buffer (final concentration 50 μM) were added. The microtiter plates were then incubated at room temperature for 30 min. Then, the reaction was stopped by adding 10 μL of Gly-Phe-DMK in MES-buffer (final concentration 1 μM). The fluorescence in the wells was determined using a Molecular Devices SpectraMax M5 Fluorescence Reader (Ex 360 nm, Em 460 nm) or an Envision Fluorescence Reader (Ex 355 nm, Em 460 nm).
The analysis of the data was performed by calculating the percentage of fluorescence in the presence of test compound in comparison to the fluorescence of the vehicle control after subtracting the background fluorescence using the following formula: (RFU(sample)−RFU(background))*100/(RFU(control)−RFU(background))
Data from these calculations were used to generate IC50 values for inhibition of DPPI, respectively.

Sequence of recombinant human Cathepsin K (P43235 115-329): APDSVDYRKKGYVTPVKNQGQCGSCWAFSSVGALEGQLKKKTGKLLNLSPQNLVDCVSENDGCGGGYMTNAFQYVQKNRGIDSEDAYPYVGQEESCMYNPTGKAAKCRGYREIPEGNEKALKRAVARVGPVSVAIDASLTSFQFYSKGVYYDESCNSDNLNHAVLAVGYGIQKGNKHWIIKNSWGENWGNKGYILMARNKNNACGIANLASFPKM
Sequence of recombinant human DPPI (Cathepsin C) (P53634 231-394): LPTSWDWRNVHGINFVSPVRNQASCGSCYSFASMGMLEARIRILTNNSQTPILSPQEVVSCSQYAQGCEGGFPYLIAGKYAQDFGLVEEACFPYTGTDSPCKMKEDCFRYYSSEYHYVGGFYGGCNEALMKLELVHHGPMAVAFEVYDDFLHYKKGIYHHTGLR
Sequence of recombinant human DPPI (Cathepsin C) (P53634 395-463): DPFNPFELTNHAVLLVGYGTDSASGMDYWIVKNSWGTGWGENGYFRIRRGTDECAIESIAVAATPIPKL
Sequence of recombinant human DPPI (Cathepsin C) (P53634 25-134): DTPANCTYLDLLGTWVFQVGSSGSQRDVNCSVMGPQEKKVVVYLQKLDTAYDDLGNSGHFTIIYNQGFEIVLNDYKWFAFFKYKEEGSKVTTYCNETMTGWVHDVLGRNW

`CS(=O)(=O)c1cc(-c2ccc(C[C@@H](C#N)NC(=O)[C@H]3NC4CCC3CC4)c(F)c2)ccc1C#N` [Example 1, (2S)—N-[(1S)-1-cyano-2-[4-(4-cyano-3-methylsulfonyl-phenyl)-2-fluoro-phenyl]ethyl]-3-azabicyclo[2.2.2]octane-2-carboxamide]: the values for the IC50 in data set [1] and in data set [2] were 2700 nM and 134 nM, respectively. Also, in data set [3], the half-life at 1 μM stood at 2 h.

`CN1C(=O)Cc2ccc(-c3ccc(C[C@@H](C#N)NC(=O)[C@H]4NC5CCC4CC5)cc3)cc21` [Example 6]: in data set [4], the IC50 was 52.2 nM.

`N#Cc1ccc(-c2ccc(C[C@@H](C#N)NC(=O)[C@H]3NC4CCC3CC4)cc2)cc1` [Example 9]: the figures for the IC50 in data set [4] and in data set [1] were 73 nM and 14800 nM, respectively. Further, the half-life at 1 μM in data set [3] was > 2.17 h.

For the molecule `N#C[C@H](Cc1ccc(-c2ccc(S(N)(=O)=O)cc2)cc1)NC(=O)[C@H]1NC2CCC1CC2` [Example 13], the IC50 in data set [4] came to 102 nM; in data set [1], 10800 nM. For `N#C[C@H](Cc1ccc(-c2ccc3c(c2)CC(=O)N3)cc1)NC(=O)[C@H]1NC2CCC1CC2` [Example 14], in data set [4], the IC50 was 103 nM. Consider `CS(=O)(=O)c1ccc(-c2ccc(C[C@@H](C#N)NC(=O)[C@H]3NC4CCC3CC4)cc2)cc1` [Example 15], for which the IC50 in data set [4] was 110 nM.

For `N#C[C@H](Cc1ccc(-c2ccc(C(N)=O)cc2)cc1)NC(=O)[C@H]1NC2CCC1CC2` [Example 16], the IC50 in data set [4] worked out at 118 nM.

Turning to `CS(=O)(=O)Nc1ccc(-c2ccc(C[C@@H](C#N)NC(=O)[C@H]3NC4CCC3CC4)cc2)cc1` [Example 17], the IC50 came to 124 nM in data set [4] and 6700 nM in data set [1]. For `N#C[C@H](Cc1ccc(-c2cccc(C(N)=O)c2)cc1)NC(=O)[C@H]1NC2CCC1CC2` [Example 18] the same measures were 131 nM and 9700 nM.

For `N#C[C@H](Cc1ccc(-c2ccc3c(c2)CCNC3=O)cc1)NC(=O)[C@H]1NC2CCC1CC2` [Example 20], the IC50 in data set [4] turned out to be 137 nM. Take `COCCN1C(=O)Cc2ccc(-c3ccc(C[C@@H](C#N)NC(=O)[C@H]4NC5CCC4CC5)cc3)cc21` [Example 21]: in data set [4], the IC50 is 160 nM.

Turning to `CCS(=O)(=O)c1ccc(-c2ccc(C[C@@H](C#N)NC(=O)[C@H]3NC4CCC3CC4)cc2)cc1` [Example 22], the IC50 in data set [4] came to 164 nM. For the molecule `N#C[C@H](Cc1ccc(-c2cc(F)c(F)c(F)c2)cc1)NC(=O)[C@H]1NC2CCC1CC2` [Example 23], in data set [4], the IC50 stood at 244 nM.

With `N#Cc1cc(-c2ccc(C[C@@H](C#N)NC(=O)[C@H]3NC4CCC3CC4)cc2)ccn1` [Example 24], the IC50 in data set [4] worked out at 248 nM. On the same count and under the same terms, under `CN1Cc2ccc(-c3ccc(C[C@@H](C#N)NC(=O)[C@H]4NC5CCC4CC5)c(F)c3)cc2C1` [Example 25] stands 98 nM; under `CS(=O)(=O)c1ccc(-c2ccc(C[C@@H](C#N)NC(=O)C3NC4CCC3CC4)c(F)c2)cc1C#N` (stereo partly drawn) [Example 26], 27.8 nM; under `CN1Cc2cc(-c3ccc(C[C@@H](C#N)NC(=O)[C@H]4NC5CCC4CC5)c(F)c3)ccc2S1(=O)=O` [Example 27], 73.3 nM.
